For four compounds, solubility results are on record in US7910780B2, “Method for purifying terephthalaldehyde” (LG Chem, Ltd., priority 2006, dated 2011).

Series [1] is described as follows: Solubility of terephthalaldehyde and major impurities in p-xylene and DMSO. As to conditions: p-xylene, organic solvent or mixture.
The next series is described as follows: physchem. Conditions: organic solvent or mixture.

Some results are limits rather than exact numbers.

One may read the solubility as the concentration that dissolves in the medium under given conditions.

For `O=Cc1ccc(C(=O)O)cc1` [4-CBA, 4-carboxybenzaldehyde], the solubility in series [1] (25 °C, in p-xylene (25° C.)) was below 2 mg/mL; in series [1] (100 °C, in p-xylene (100° C.)) it was below 20 mg/mL. Take `O=Cc1ccc(O)cc1` [4-HBA, 4-hydroxybenzaldehyde]: the values for the solubility in “physchem” (25 °C) and in “physchem” (100 °C) were below 2000 µg/mL and below 20000 µg/mL, respectively. For the compound `Oc1ccc(O)cc1` [HQ, hydroquinone], the solubility in the series “physchem” (25 °C) and in “physchem” (100 °C) was below 5000 µg/mL in each case. Take `O=C(O)c1ccc(C(=O)O)cc1` [TPA, terephthalic acid]: the solubility in the series “physchem” (100 °C) is below 20000 µg/mL.
